Laboratory results as given in patent US7205306B2, “Substituted pyrazinones, pyridines and pyrimidines as corticotropin releasing factor ligands” (Bristol-Myers Squibb Pharma Company, priority 2001, dated 2007).
Where a name gives a salt, the structure may show the parent alone.

Row | SMILES | melting point
1 | CC[C@H](C1CC1)n1cc(Cl)nc(N2CCc3cc(OC)cc(C)c32)c1=O (as salt: hydrochloride) [Example 510, 5-Chloro-1-[(1R)-1-cyclopropylpropyl]-3-(5-methoxy-7-methyl-2,3-dihydro-1H-indol-1-yl)-2(1H)-pyrazinone] | 160 to 162 °C
2 | COC[C@@H](C)n1cc(Cl)nc(N2CCc3cc(Cl)cc(Cl)c32)c1=O [Example 520, 5-Chloro-3-(5,7-dichloro-2,3-dihydro-1H-indol-1-yl)-1-[(1R)-2-methoxy-1-methylethyl]-2(1H)-pyrazinone] | 93 to 95 °C
3 | CCC(CC)n1cc(Cl)nc(N2CCc3cc(Br)cc(Cl)c32)c1=O [Example 540, 3-(5-Bromo-7-chloro-2,3-dihydro-1H-indol-1-yl)-5-chloro-1-(1-ethylpropyl)-2(1H)-pyrazinone] | 156 to 157 °C
4 | CC[C@H](C1CC1)n1cc(Cl)nc(N2CCc3cc(OC)cc(Br)c32)c1=O (as salt: hydrochloride) [Example 509, 3-(7-Bromo-5-methoxy-2,3-dihydro-1H-indol-1-yl)-5-chloro-1-[(1R)-1-cyclopropylpropyl]-2(1H)-pyrazinone] | 138 to 140 °C
5 | CCC(CC)n1cc(Br)nc(N2CCc3cc(OC)cc(Br)c32)c1=O (as salt: hydrochloride) [Example 505, 5-Bromo-3-(7-bromo-5-methoxy-2,3-dihydro-1H-indol-1-yl)-1-(1-ethylpropyl)-2(1H)-pyrazinone] | 133 to 135 °C
6 | CC[C@@H](COC)n1cc(Cl)nc(N2CCc3cc(Cl)cc(Cl)c32)c1=O [Example 530, 5-Chloro-3-(5,7-dichloro-2,3-dihydro-1H-indol-1-yl)-1-[(1S)-1-(methoxymethyl)propyl]-2(1H)-pyrazinone] | 143 to 146 °C
7 | CCC(CC)Nc1nc(C)nc(N2CCc3cc(Cl)cc(Cl)c32)c1CO [Example 7, 4-(5,7-dichloro-2,3-dihydro-1H-indol-1-yl)-6-(1-ethylpropylamino)-5-hydroxymethyl-2-methylpyrimidine] | 150 to 152 °C

Continued, values first:

Row | melting point | SMILES
8 | 116 to 118 °C | CC[C@H](COC)n1cc(Br)nc(N2CCc3cc(OC)cc(C)c32)c1=O (as salt: hydrochloride) [Example 526, 5-Bromo-3-(5-methoxy-7-methyl-2,3-dihydro-1H-indol-1-yl)-1-[(1R)-1-(methoxymethyl)propyl]-2(1H)-pyrazinone]
9 | 102 to 104 °C | CC[C@H](COC)n1cc(Cl)nc(N2CCc3cc(OC)cc(Br)c32)c1=O (as salt: hydrochloride) [Example 523, 3-(7-Bromo-5-methoxy-2,3-dihydro-1H-indol-1-yl)-5-chloro-1-[(1R)-1-(methoxymethyl)propyl]-2(1H)-pyrazinone]
10 | 152 to 154 °C | CCC(CC)n1cc(Br)nc(N2CCc3cc(OC)cc(C)c32)c1=O (as salt: hydrochloride) [Example 506, 5-Bromo-1-(1-ethylpropyl)-3-(5-methoxy-7-methyl-2,3-dihydro-1H-indol-1-yl)-2(1H)-pyrazinone]
11 | 62 to 64 °C | CC[C@H](COC)n1cc(Cl)nc(N2CCc3cc(OC)cc(C)c32)c1=O (as salt: hydrochloride) [Example 545, 5-Chloro-3-(5-methoxy-7-methyl-2,3-dihydro-1H-indol-1-yl)-1-[(1R)-1-(methoxymethyl)propyl]-2(1H)-pyrazinone]
12 | 130 to 132 °C | CCC(CC)n1cc(Cl)nc(N2CCc3cc(OC)cc(Br)c32)c1=O (as salt: hydrochloride) [Example 441, 3-(7-Bromo-5-methoxy-2,3-dihydro-1H-indol-1-yl)-5-chloro-1-(1-ethylpropyl)-2(1H)-pyrazinone]
13 | 141 to 142 °C | CC[C@H](COC)n1cc(Cl)nc(N2CCc3cc(OC)cc(C#N)c32)c1=O [Example 546, 1-[6-Chloro-4-[(1R)-1-(methoxymethyl)propyl]-3,4-dihydro-3-oxopyrazinyl]-5-methoxy-2,3-dihydro-1H-indole-7-carbonitrile]
